The source of these data is patent US10508092B2, “Synthesis of novel analogs of diptoindonesin G, compounds formed thereby, and pharmaceutical compositions containing them” (Wisconsin Alumni Research Foundation, priority 2016, dated 2019).

Data set [1] concerns estrogen receptor β (ERβ). Nature of the data set: Western blot of FLAG-ERβ levels in Hs578T-ERβLuc Dox-inducible cells. In kind it is cell-based, human. As to conditions: Hs578T-ERβLuc Dox-inducible line, 10 μM, 5 days, Western blot (anti-FLAG). On the procedure: FIGS. 2A, 2B, and 2C together depict the biological activity of the subject compounds on estrogen receptor β (ERβ) levels in human breast cancer cells.
The biological activity of these four analogs were then compared with the parent compound Dip G following our previous protocol (Zhao et al., supra). See FIGS. 1A, 1B, 1C, 2A, 2B, and 2C. Cells were treated with each compound at 10 μM concentration in order to evaluate how well each modified the stability of ERα and ERβ.
MCF7 cells were treated with Dip G and analogs for 24 hours before harvesting. Hs578T-tet-on-ERβ cells (ATCC HTB-126; American Type Culture Collection, Manassas, Va.) were treated with doxycycline for 24 hours to induce ERβ expression. Then the cells were treated with compounds for 5 days before harvesting. 15 μg of total cell lysates were resolved on SDS-PAGE and Western blot analyses were performed as previously described using ERα antibody (HC-20, Santa Cruz Biotechnology, Inc., Dallas, Tex.) and anti-FLAG antibody (F7425, Sigma-Aldrich Co., LLC, St. Louis, Mo.) for ERβ.^3

For data set [2] the following is noted: patients, high dose administration of fulvestrant (500 mg); cited from earlier work.

Several values for one entry are separate records, joined by “and”; a condition that tells them apart may be missing. Equal values may be shown once.

As a reminder, the melting point is the temperature of the solid-liquid transition. `O=C1c2c(O)cc(O)cc2-c2c(-c3ccccc3)oc3cc(O)cc1c23` [Compound 14] gave a melting point of more than 260 °C. The ERβ stability result in data set [1] is listed as “moderately stabilized”.

`C[C@]12CC[C@@H]3c4ccc(O)cc4C[C@@H](CCCCCCCCC[S+]([O-])CCCC(F)(F)C(F)(F)F)[C@H]3[C@@H]1CC[C@@H]2O` (stereo partly drawn) [fulvestrant]: in data set [2], the peak plasma concentration was ~20 ng/ml and ~30 nM.
